Source: US20230000888A1, “NAD-PRECURSORS AND DIETARY RESTRICTION FOR TREATING AGE RELATED MEDICAL CONDITIONS” (Leibniz-Institut für Alternsforschung - …, priority 2019, published 2023)
“Also recorded” adds a separate entry of the source. Structures can show the parent of a compound that is named as a salt.

Legend:
[1] = system: stress response genes in HSCs; assay: NanoString mRNA analysis of stress response genes in freshly isolated HSCs from dietary cohorts; format: in vivo, mice; conditions: 2 weeks, listed as NR-alone
From the text: (§1) FIG. 13 (A-J) Young (2-3 month old) and old (22-24 month old) mice were exposed for 2 weeks to the indicated diet: ad libitum diet (AL), dietary restriction (DR=CRD), NAD-precursor supplementation (=NR), NR/DR—combination of NR plus DR.
(G-K) NanoString mRNA analysis of stress response genes in freshly-isolated HSCs from young (Y) and old (O) mice that were exposed to ad libitum (AL) or dietary restriction (DR diet for 2 weeks) of NAD-precursor treatment (NR) or a combination of NR plus DR (=NR/DR). The dotted lines represent the q-value of 0.05.
To analyze whether the NR/DR-mediated re-installment of mitochondrial metabolic plasticity in HSCs from old mice could rescue the induction of metabolic stress signals, freshly isolated HSCs from 2-week dietary cohorts were analyzed with the same NanoString assay as described above.
Measuring of RNA expression by NanoString was done according to our previous publication (Chen et al., 2019) and according to manufacturer protocol (NanoString technologies). In brief, 1×10^4 cells were lysed in 2 μL of lysis/binding solution (Applied Biosystems, 8500G14). […]

[2] = system: stress response genes in MPPs (CD34+Flt3−LSK); assay: NanoString analysis of stress response genes in MPPs pre-treated in vitro with NR followed by 3I or vehicle; format: cell-based, mice
Procedure: (C,D) NanoString analysis on the expression of stress response genes was carried out on 10,000 MPPs (CD34^+Flt3^−LSK) from young (3-4 months, n=4) and old mice (22-24 months, n=4). MPPs were pre-treated in culture with 1 mM NR or DMSO (Con) for 12h followed by treatment with 31 or Vehicle (Veh: 0.4% DMSO) for 12h under continuation of NR or Veh treatment. (C,D) Volcano plots for the NanoString analysis.
(G,H) NanoString analysis on the expression of stress response genes was carried out on 10,000 MPPs (CD34^+Flt3^−LSK) from young (3-4 months, n=4) and old mice (22-24 months, n=4). MPPs were pre-treated in vitro with 1 mM NR or DMSO (Con) for 12h followed by treatment with 31 or Vehicle (Veh: 0.4% DMSO) for 12h. The NR treatment was continued for the time window of 12-24h. (G, H) Volcano plots on the NanoString analysis of stress response genes.
(§2) To test the hypothesis that NAD(P) availability limits the potential of HSPCs from old mice to respond to changes in nutrient availability, freshly isolated HSCs from young and old mice were exposed to inhibitors of mitochondrial nutrient uptake.
Measuring of RNA expression by NanoString was done according to our previous publication (Chen et al., 2019) and according to manufacturer protocol (NanoString technologies). In brief, 1×10^4 cells were lysed in 2 μL of lysis/binding solution (Applied Biosystems, 8500G14). The cell lysate was then used for hybridization reaction as following: 2 μL of cell lysate was mixed with 5 μL of nCounter hybridization buffer (NanoString), 2 μL of Core Tagset, 2 μL of extension Tagset, 0.5 μL of […] Probe A working pool, 0.5 μL of […] probe A extension Pool, 0.5 μL of 3 nm Probe B working pool, and 0.5 μL of 3 nM Probe B extension pool (from IDT technologies). 2 μL of Nuclease-free water was added to each reaction to reach a final volume of 15 μL. The reaction mixture was prepared in Strip tubes (from NanoString technologies). Then it was incubated at 67° C. using thermal cycler (Masterycler from Eppendorf) for 16 h. Afterward, the Nanostring chemistry was processed automatically using nCounter prep-station 5s (NanoString technologies) according to manufacturer protocol. Directly after the run, the nCounter Cartridge was loaded into nCounter digital analyzer 5s (NanoString technologies). For NanoString analysis on young and old mice exposed to DR or AL food, freshly FACS-Sorted MPPs (CD34^+Flt3^− LSK) were used. […] Cells from NR treatment and DMSO were divided into 2 halves and further treated with 3I (6 μM each) or DMSO as control. The cells were harvested for NanoString analysis as described above. Data analysis was done after background correction using nSolver advanced analysis software (v.4) and (R software v 3.3.2.). The following housekeeping genes were used for normalization: ActB, B2M, Gapdh, Gusb, Hprt, PGK1, Polr1b, Polr2a, Ppia, Rpl19, Sdha, and Tbp. Heatmaps and volcano plots was done using GraphPad prism software version 8.

[3] = system: 22-24 months old female mice; assay: Lifespan (Kaplan Meier survival) of old mice under long-term dietary treatments; format: in vivo
Procedure: (B) Kaplan Meier survival analysis in cohorts of mice that were exposed to DR-alone, NR-alone, or NR/DR co-treatment compared to AL-feeding. Dietary interventions were started at the age of 22-24 months and continued over lifetime. […] P-values were calculated using Mantel-Cox test. The p-values that are shown next to the intervention naming refer to the comparison of the intervention to the AL-diet group.
To test effects of these dietary intervention on organism lifespan, 4 cohorts of 22-24 months old female mice (n=14-15 mice per group) were exposed to long-term treatments (until the end of life or the occurrence of humane endpoints).

old mice = conditions: previous studies; cited from earlier work
CMPs [4] = assay: Seahorse basal oxygen consumption rate after NR pre-treatment followed by 3I; format: cell-based, mice; conditions: FIG. 12F
Procedure: (F) Basal oxygen consumption rate in CMPs from young (3-5 months, n=4) and old mice (22-24 months, n=4). Cells were either pretreated with 1 mM […] (NR) or DMSO (Con) for 12 h. This was followed by treatment for 12h in vitro to combination of 3 inhibitors of mitochondrial nutrient uptake (by BPTES=6 uM, Etomoxir=6 uM, UK5099=6 uM) or DMSO as control. The data were not normally distributed (Shapiro-Wilk test) and the Mann-Whitney test was used for the calculation of p-values.
as §2
For CMP and GMP 80,000 cells were used. For MPP 60,000 cells were used.

HSCs (CD150+CD34−LSK) = assay: Competitive transplantation of HSCs from dietary cohorts, repopulation capacity (peripheral blood chimerism); format: in vivo; conditions: HSCs from young mice; 2 weeks intervention; FIG. 14A
CMPs [5] = assay: Respirometry (OCR) of freshly isolated CMPs from mice fed NR, DR or NR/DR; format: in vivo; conditions: 2 weeks
From the text: as §1
(A-C) Respirometry analysis of the OCR of freshly-isolated CMPs in: (A) young and (B) old mice; (C) Quantification of OCR at basal level of the indicated groups as measured in (A,B, before oligomycin-application, marked by 0). N=4-6 mice per group. The Data were normally distributed (Shapiro-Wilk test) after log transformation. Error bars represent SD. P-values were calculated on average data of 4 time points using 2-way ANOVA with Tukey's multiple comparisons test on log-transformed data.
To experimentally test whether mitochondrial enhancement could re-empower DR (=CRD) in old mice, young and old mice were exposed to NAD+ supplementation by feeding of nicotinamide riboside (NR). In addition, the mice were exposed for 2 weeks to DR (=CRD), starting 1 week after NR pre-feeding, or continuous AL feeding.

HSCs = assay: HSC culture with NR pre-treatment followed by 3I, number of CD48−Sca1+ cells; format: cell-based; conditions: NR-treated (1 mM) HSCs from old mice; 3I 6 μM each; FIG. 12E
From the text: The NR treatment was continued on das 3 and 4. […] N=3 HSC cultures derived from 3 individual mice per group. […] Error bars depict SD.
as §2
For testing the response of HSPCs to the blocking of glycolysis or mitochondrial ATP synthesis, 2-DG (Sigma, D8375) or oligomycin A (Sigma, 75351) were used. For the inhibition of nutrient uptake into mitochondria, three inhibitors (3I) were used. BPTES (Sigma, SML0601) blocks […] uptake, Etomoxir (Sigma E1905) blocks Fatty acids uptake, and UK5099 (Sigma PZ0160) blocks pyruvate uptake. The final concentration of each inhibitor in the culture medium is 6 μM. Same amount of DMSO was used in the medium as control. For determination of cell number after NR treatment 500 HSCs from young (2-3 months) and old (22-24 months) were pre-incubated either with 1 mM NR (provided by Prof. Johan Auwerx Lab) or DMSO as control for 2 days followed by 2 days treatment with the inhibitors (BPTES, Etomoxir and UK5099, 6 μM each) or same amount of DMSO as control. The cells were then analyzed by BD LSR fortessa.

CMPs [6] = assay: OCR of CMPs in glucose-restricted medium from old mice fed CRMs with or without NAD-precursor; format: in vivo; conditions: old mice (22-24 months), 2 weeks, glucose depletion, FIG. 15
Procedure: FIG. 15—Old (22-24 months old) mice were exposed for 2 weeks to the indicated diet: ad libitum (AL), Metformin (met), NAD-precursor (NR), NRM—combination of NR plus Metformin. Curves show respirometry analysis of the OCR of freshly isolated CMPs. The OCRs were continuously measured for 12h in freshly isolated CMPs grown in glucose-restricted medium (1 mM=R).
To test whether NAD precursor supplementation would cooperate with specific CRMs that mimic a certain sub-pathway induced by CRD, different classes of CRMs were employed. We tested the combined effects of NAD supplementation with • (a) Metformin—a CRM, which induces mitochondrial stress • (b) Pterostilbene—a CRM which induces Sirtuin-dependent stress responses including autophagy • (c) Spermidine—a CRM, which induces autophagy (ad ownstream target of sirtuins (see above)
Old mice (22-24 months) were fed with CRMs (a-c) with or without combination with NAD-precursor supplementation for 2 weeks before analysis. Freshly isolated hematopoietic cells (CMPs) were tested for a rescue in responsiveness to activate mitochondria in response to glucose depletion—a marker of metabolic improvement induced by CRD in young mice or by a combination of NAD precursor supplementation plus CRD in old mice. […]

female Drosophila = conditions: 400 μM, high-fat diet; cited from earlier work
[7] = Y.Con + 3I versus O.NR + 3I, MPPs, 12 h pre-treatment with NR

In the case of NC(=O)c1ccc[n+]([C@@H]2O[C@H](CO)[C@@H](O)[C@H]2O)c1 [NR, Nicotinamide riboside], the “induction of metabolic stress signals (stress response genes)” value ([1]; HSCs from young mice, FIG. 13G) is reported as “induction of health-promoting stress response genes in young mice; also recorded: induced metabolic stress signals”, the “induction of metabolic stress signaling (stress response genes)” value ([1]; HSCs of old mice, FIG. 13I,K) is reported as “neither of the single treatments, NR-alone (FIG. 13I) or DR-alone (FIG. 13J) was able to induce metabolic stress signaling” and the “IDH1-mRNA LogZFC” value [2, 7] is reported as −2.62. The “Ino1-mRNA LogZFC” value [2, 7] was −1.78, the “Myh9-mRNA LogZFC” value [2, 7] was −2.45 and the “NRas-mRNA LogZFC” value [2, 7] was −2.16. For the same compound, the “Pds5A-mRNA LogZFC” value [2, 7] was −3.08, the “atp5a1-mRNA LogZFC” value [2, 7] was 1.11 and the “unspliced XBP1-mRNA LogZFC” value [2, 7] was 2.56. The “changes in the transcription of stress response genes in old vs. young cells” value ([2]; cells exposed to 3I-treatment, 1 mM NR, FIG. 12H) was “reverted changes in the transcription of stress response genes”, the “pre-existing, age-related changes in transcription of stress response genes” value ([2]; old vs. young cells not exposed to 3I-treatment, 1 mM NR, FIG. 11C-E) was “no significant effects” and the “increase in median life expectancy compared to AL” value ([3]; late-life treatment of old mice, this study) was 10%. The “lifespan compared to AL-fed control mice” value ([3]; treatment started at 22-24 months, continued over lifetime, FIG. 14B) was “slight increases in lifespan”, the “increase in lifespan when applied to old mice” value (old mice) was 6.9% and the “response to 3I-treatment: oxidative metabolism” value (CMPs [4]; NR-treated (1 mM) cells from old mice, 3I 6 uM each) was “reduction of oxidative metabolism”. For the same compound, the “oxidative metabolism (basal oxygen consumption rate)” value (CMPs [4]; cells from old mice, 1 mM NR) was “rescued oxidative metabolism to a similar level as observed in HSCs from young mice”, the “repopulation capacity of HSCs” value (HSCs (CD150+CD34−LSK)) was “increased the repopulation capacity” and the “mitochondrial respiration compared to AL-fed mice” value (CMPs [5]; old mice, FIG. 13B,C) was “neither of the single treatments was sufficient to induce mitochondrial respiration”. The “mitochondrial respiration compared to AL-fed mice” value (CMPs [5]; young mice, FIG. 13A,C) was “significant increases in mitochondrial respiration” and the “response to 3I-treatment: cell proliferation” value (HSCs) was “suppression of cell proliferation”.
For CN(C)C(=N)N=C(N)N [metformin, Metformin-Hydrochlorid, reference compound], the “synergistic effects of NAD precursor supplementation combined with the CRM on inducing mitochondria activity (OCR)” value (CMPs [6]) was “synergistic effects on inducing mitochondria activity”.
For Oc1ccc(C=Cc2cc(O)cc(O)c2)cc1 [resveratrol, Resveratrol], the “extension of the lifespan” value (female Drosophila) is given as 10%-15%.
